pIC50: −log10 of the molar value. l = locked nucleic acid (LNA); d = 2'-deoxy (DNA)
What was measured:
[1] = system: mCD39 mRNA; assay: mCD39 mRNA knockdown efficacy screen in A20 cells (single dose, gymnotic delivery, QuantiGene Singleplex); assay type: cell-based, mouse; settings: 10 μM, three days, normalized to HPRT1
Method: FIG. 14-1 and 14-2 show mCD39 mRNA knockdown efficacy of mCD39 antisense oligonucleotides in the murine cancer cell line A20 (mouse B cell lymphoma). A20 cells were treated with a single dose of 10 μM of the respective antisense oligonucleotide. As negative control, cells were treated with neg1, an antisense oligonucleotide having the sequence CGTTTAGGCTATGTACTT (SEQ ID NO:99). Residual mCD39 mRNA expression relative to untreated cells is depicted. Expression values were normalized to expression of the housekeeping gene HPRT1.
In order to analyze the efficacy of mCD39 antisense oligonucleotides with regard to the knockdown of mCD39 mRNA expression in a cancer cell line, A20 (mouse B cell lymphoma, ATCC) cells were treated with a single dose (concentration: 10 μM without addition of any transfection reagent; this process is called gymnotic delivery) of the respective antisense oligonucleotide as indicated in FIG. 14. As control, cells were treated with neg1, an antisense oligonucleotide having the sequence CGTTTAGGCTATGTACTT (SEQ ID NO:99). mCD39 and HPRT1 mRNA expression was analyzed after three days using the QuantiGene Singleplex assay (Affymetrix) and mCD39 expression values were normalized to HPRT1 expression values.

[2] = system: hCD39 mRNA; assay: hCD39 mRNA knockdown efficacy screen in A-172 cells (single dose, gymnotic delivery, QuantiGene Singleplex); assay type: cell-based, human; settings: 10 μM, 3 days; for Residual hCD39 mRNA expression relative to untreated cells (set as 1): third screening round; for Mean hCD39 mRNA expression (relative to untreated cells set as 1): first screening round; for Mean hCD39 mRNA expression (relative to untreated cells set as 1) / Relative hCD39 mRNA expression (compared to non-treated cells): normalized to HPRT1; for Relative hCD39 mRNA expression (compared to non-treated cells): second screening round
Outline: (§1)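 Antisense oligonucleotides given once at 10 μM without transfection reagent (gymnotic) to HDLM-2 or A-172 cells for 3 days. hCD39 mRNA measured by QuantiGene Singleplex, normalized to HPRT1 and expressed relative to untreated cells; triplicate means.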

[3] = system: hCD39 mRNA; assay: hCD39 mRNA knockdown efficacy screen in HDLM-2 cells (single dose, gymnotic delivery, QuantiGene Singleplex); assay type: cell-based, human; parameters: key to Relative hCD39 mRNA expression (compared to non-treated cells): *: values are below detection limit; settings: 10 μM, 3 days; for Residual hCD39 mRNA expression relative to untreated cells (set as 1): third screening round; for Mean hCD39 mRNA expression normalized to HPRT1 relative to untreated control = 1: first screening round; for Relative hCD39 mRNA expression (compared to non-treated cells): second screening round, normalized to HPRT1
Outline: as §1

[4] = system: hCD39 mRNA; assay: IC50 determination / concentration-dependent hCD39 mRNA knockdown in HDLM-2 cells; assay type: cell-based, human; settings: for mRNA inhibition: HDLM-2, 3 days; for pIC50: HDLM-2 cells, hCD39 mRNA, 3 days
Method: HDLM-2 cells were treated for 3 days with the indicated concentration of the respective antisense oligonucleotide. Residual hCD39 expression is depicted compared to untreated control cells. hCD39 mRNA expression values were normalized to expression of the housekeeping gene HPRT1.
The antisense oligonucleotide A04040H (SEQ ID No. 3) that had shown potent activity in the first and second screening round was used as reference. HDLM-2 cells treated for 3 days with the indicated concentrations of the respective antisense oligonucleotide. hCD39 mRNA expression values were normalized to expression of the housekeeping gene HPRT1. Residual hCD39 mRNA expression relative to untreated cells (set as 100) is depicted. Depicted is the mean of triplicate wells+/−SD.
In a second experiment the concentration-dependency of effects and the IC50 values of hCD39 antisense oligonucleotides A04010H (SEQ ID No.14), A04016H (SEQ ID No.20), A04017H (SEQ ID No.21), A04020H (SEQ ID No. 24) and A04026H (SEQ ID No.30) were tested. […] HDLM-2 cells were treated with titrated amounts of the respective antisense oligonucleotide (concentrations: 10 μM, 3.3 μM, 1.1 μM, 370 nM, 120 nM, 41 nM, 14 nM, 4.5 nM). hCD39 mRNA expression was analyzed after three days of treatment. FIG. 5 and Table 9 depicts the concentration-dependent reduction of hCD39 mRNA expression by the selected hCD39 antisense oligonucleotides.
The hCD39 antisense oligonucleotides A04051H (SEQ ID No.88), A04052H (SEQ ID No.89), A04053H ([…]), A04056H (SEQ ID No.92), A04059H (SEQ ID No.94), A04060H (SEQ ID No.95), and A04061H (SEQ ID No.96) had shown potent single-dose activity in both HDLM-2 and A-172 cells. […] The antisense oligonucleotide A04040H that had shown potent activity in the first screening round was used as reference. hCD39 mRNA expression was analyzed after 3 days of treatment. FIG. 7 depicts the concentration-dependent reduction of hCD39 expression by hCD39 antisense oligonucleotides.

[5] = third screening round (Table 12)
[6] = first screening round (Table 8)

+A*+C*+A*T*T*T*C*T*T*A*C*T*C*+G*+T*+T (antisense ACATTTCTTACTCGTT; sugars from the 5' end l3 d10 l3, all phosphorothioate, methylation of C not given here) [A04022MR]
Relative mCD39 mRNA expression (compared to non-treated cells) [1]: 0.20

+A*+G*+A*T*C*C*A*A*A*G*C*G*C*+C*+A*+A (antisense AGATCCAAAGCGCCAA; sugars from the 5' end l3 d10 l3, all phosphorothioate, methylation of C not given here) [A04013MR]
Relative mCD39 mRNA expression (compared to non-treated cells) [1]: 0.06

+A*+G*+C*A*T*T*T*T*G*G*C*A*T*+C*+A*+C (antisense AGCATTTTGGCATCAC; sugars from the 5' end l3 d10 l3, all phosphorothioate, methylation of C not given here) [A04020MR]
Relative mCD39 mRNA expression (compared to non-treated cells) [1]: 0.06

+A*+G*+T*A*A*T*C*C*A*C*C*C*+A*+T*+A (antisense AGTAATCCACCCATA; sugars from the 5' end l3 d9 l3, all phosphorothioate, methylation of C not given here) [A04001MR]
Relative mCD39 mRNA expression (compared to non-treated cells) [1]: 0.02

+A*+G*+T*T*A*T*A*G*C*C*T*T*G*+C*+A*+G (antisense AGTTATAGCCTTGCAG; sugars from the 5' end l3 d10 l3, all phosphorothioate, methylation of C not given here) [A04017MR]
Relative mCD39 mRNA expression (compared to non-treated cells) [1]: 0.07

+A*+T*+C*C*A*A*A*G*C*G*C*C*A*A*+A*+G*+G (antisense ATCCAAAGCGCCAAAGG; sugars from the 5' end l3 d11 l3, all phosphorothioate, methylation of C not given here) [A04026MR]
Relative mCD39 mRNA expression (compared to non-treated cells) [1]: 0.04

+C*+A*+C*A*T*T*A*G*C*T*G*C*+A*+C*+G (antisense CACATTAGCTGCACG; sugars from the 5' end l3 d9 l3, all phosphorothioate, methylation of C not given here) [A04007MR]
Relative mCD39 mRNA expression (compared to non-treated cells) [1]: 0.07

+C*+A*+C*T*G*T*T*C*G*T*A*G*T*+C*+T*+C (antisense CACTGTTCGTAGTCTC; sugars from the 5' end l3 d10 l3, all phosphorothioate, methylation of C not given here) [A04014MR]
Relative mCD39 mRNA expression (compared to non-treated cells) [1]: 0.20

+T*+A*+C*G*T*T*C*A*C*T*A*C*C*T*+T*+C*+T (antisense TACGTTCACTACCTTCT; sugars from the 5' end l3 d11 l3, all phosphorothioate, methylation of C not given here) [A04052H]
Residual hCD39 mRNA expression relative to untreated cells (set as 1) [2]: 0.25
Residual hCD39 mRNA expression relative to untreated cells (set as 1) [3]: 0.00
mRNA inhibition ([4]; 0.45 nM, Table 12): 24.52%
mRNA inhibition ([4]; 1.3 nM, Table 12): 25.80%
mRNA inhibition ([4]; 4 nM, Table 12): 9.03%
mRNA inhibition ([4]; 12 nM, Table 12): 31.25%
mRNA inhibition ([4]; 40 nM, Table 12): 49.21%
mRNA inhibition ([4]; 110 nM, Table 12): 75.30%
mRNA inhibition ([4]; 330 nM, Table 12): 88.35%
mRNA inhibition ([4]; 1000 nM, Table 12): 94.72%
pIC50 [4, 5]: 7.27

+T*+A*+C*G*T*T*C*A*C*T*A*C*C*T*+T*C*+T (antisense TACGTTCACTACCTTCT; sugars from the 5' end l3 d11 l1 d1 l1, all phosphorothioate, methylation of C not given here) [A04053H]
Residual hCD39 mRNA expression relative to untreated cells (set as 1) [2]: 0.31
Residual hCD39 mRNA expression relative to untreated cells (set as 1) [3]: 0.01
mRNA inhibition ([4]; 0.45 nM, Table 12): 2.07%
mRNA inhibition ([4]; 1.3 nM, Table 12): 17.51%
mRNA inhibition ([4]; 4 nM, Table 12): 9.81%
mRNA inhibition ([4]; 12 nM, Table 12): 26.67%
mRNA inhibition ([4]; 40 nM, Table 12): 37.75%
mRNA inhibition ([4]; 110 nM, Table 12): 66.64%
mRNA inhibition ([4]; 330 nM, Table 12): 85.19%
mRNA inhibition ([4]; 1000 nM, Table 12): 92.69%
pIC50 [4, 5]: 7.17

+T*+A*+T*G*G*T*A*C*A*G*T*+T*G*+G*+T (antisense TATGGTACAGTTGGT; sugars from the 5' end l3 d8 l1 d1 l2, all phosphorothioate, methylation of C not given here) [A04020H]
Mean hCD39 mRNA expression (relative to untreated cells set as 1) [2]: 0.03
Relative hCD39 mRNA expression (compared to non-treated cells) [2]: 0.04
Mean hCD39 mRNA expression normalized to HPRT1 relative to untreated control = 1 [3]: 0.08
Relative hCD39 mRNA expression (compared to non-treated cells) [3]: 0.08
mRNA inhibition ([4]; 0.0045 μM, Table 9): 23.58%
mRNA inhibition ([4]; 0.013 μM, Table 9): 68.27%
mRNA inhibition ([4]; 0.04 μM, Table 9): 94.26%
mRNA inhibition ([4]; 0.12 μM, Table 9): 98.89%
mRNA inhibition ([4]; 0.4 μM, Table 9): 99.42%
mRNA inhibition ([4]; 1.1 μM, Table 9): 99.61%
mRNA inhibition ([4]; 3.3 μM, Table 9): 99.55%
mRNA inhibition ([4]; 10 μM, Table 9): 99.41%
pIC50 ([4]; second screening round (Table 9)): 8.00

+T*+G*+C*C*A*G*A*G*T*G*C*C*T*G*+A*+T*+C (antisense TGCCAGAGTGCCTGATC; sugars from the 5' end l3 d11 l3, all phosphorothioate, methylation of C not given here) [A04042H]
Mean hCD39 mRNA expression (relative to untreated cells set as 1) [2]: 0.37
Relative hCD39 mRNA expression (compared to non-treated cells) [2]: 0.19
Residual hCD39 mRNA expression relative to untreated cells (set as 1) [2]: 0.00
Mean hCD39 mRNA expression normalized to HPRT1 relative to untreated control = 1 [3]: 0.10
Relative hCD39 mRNA expression (compared to non-treated cells) [3]: *
Residual hCD39 mRNA expression relative to untreated cells (set as 1) [3]: 0.09
mRNA inhibition ([4]; 0.0045 μM, Table 8): −20.02%
mRNA inhibition ([4]; 0.013 μM, Table 8): −2.65%
mRNA inhibition ([4]; 0.04 μM, Table 8): 22.51%
mRNA inhibition ([4]; 0.12 μM, Table 8): 32.44%
mRNA inhibition ([4]; 0.4 μM, Table 8): 58.07%
mRNA inhibition ([4]; 1.1 μM, Table 8): 76.38%
mRNA inhibition ([4]; 3.3 μM, Table 8): 87.12%
mRNA inhibition ([4]; 10 μM, Table 8): 95.87%
pIC50 [4, 6]: 7.22

+T*+T*+A*C*G*T*T*C*A*C*T*A*C*C*+T*+T*+C (antisense TTACGTTCACTACCTTC; sugars from the 5' end l3 d11 l3, all phosphorothioate, methylation of C not given here) [A04044H]
Mean hCD39 mRNA expression (relative to untreated cells set as 1) [2]: 0.07
Relative hCD39 mRNA expression (compared to non-treated cells) [2]: 0.04
Mean hCD39 mRNA expression normalized to HPRT1 relative to untreated control = 1 [3]: 0.05
Relative hCD39 mRNA expression (compared to non-treated cells) [3]: *
mRNA inhibition ([4]; 0.0045 μM, Table 8): 12.17%
mRNA inhibition ([4]; 0.013 μM, Table 8): 26.25%
mRNA inhibition ([4]; 0.04 μM, Table 8): 45.88%
mRNA inhibition ([4]; 0.12 μM, Table 8): 68.28%
mRNA inhibition ([4]; 0.4 μM, Table 8): 82.63%
mRNA inhibition ([4]; 1.1 μM, Table 8): 91.19%
mRNA inhibition ([4]; 3.3 μM, Table 8): 96.20%
mRNA inhibition ([4]; 10 μM, Table 8): 98.71%
pIC50 [4, 6]: 7.33
